For this assay, the system named is SARS-CoV-2 delta variant (hCoV-19/USA/MD-HP05647/2021). Description: Live virus antiviral test in A549-hACE2 cells (RT-qPCR). The class given is cell-based. Particulars: Severe acute respiratory syndrome coronavirus 2, 72 h. (Real-time PCR tracks product formation cycle by cycle.)

A word on the EC50: it is the midpoint of the concentration-response curve.

For `CC1(C)[C@@H]2[C@@H](C(=O)N[C@H](C=O)C[C@@H]3CCNC3=O)N(C(=O)[C@H](CC3CCCCC3)NC(=O)OCc3ccccc3)C[C@@H]21` [MPI100], it took 3.4 µM to reach a half-maximal effect (EC50).

These data come from PMC11181478, “SARS-CoV-2 Main Protease Inhibitors That Leverage Unique Interactions with the Solvent Exposed S3 Site of the Enzyme” (ACS Medicinal Chemistry Letters, 2024).
